Here are results for one molecule from patent US20060154252A1, “Methods and composition for identifying therapeutic agents of atherosclerotic plaque lesions” (priority 2002, published 2006).

In the test the test system is Differentiated-THP-1. Nature of the test: Vesicle formation in the presence of fatty acids (Nile Red staining). The format is cell-based. As to conditions: 200 μM albumin-coupled fatty acid, 24 hours, differentiated macrophage permanent cell line. As to the method: Fatty acids can be prepared according to Spector A A and Hoak J C, (1969 Anal. Biochem, 32: 297-302): Breifly, 100 μmol of fatty acid (12:0, 16:0, 18:0 and 20:0) can be dissolved in 7.5 ml of hexane containing 400 mg of Celite (Sigma). The solvent is then evaporated under nitrogen by continuous magnetic stirring. The fatty acid-coated particles are then mixed with fatty acid free albumin, in serum free medium for 1 hour at room temperature under nitrogen. After centrifugation, the supernatnts containing fatty acid coupled to albumin is conserved.
Vesicle formation in the presence of fatty acids was induced as follows: briefly, THP1 differentiation was induced in a medium supplemented with 10^−7 M of phorbol 12-myristate-13-acetate (Sigma) for 24 hours at 37° C., 5% CO2. Differentiated-THP-1 was incubated with or without 200 μM of fatty acid-BSA complexes for 24 hours at 37° C., 5% CO2. After washing and paraformaldhehyde fixation, cells were stained with Nile Red (1 μg/ml) and Hoechst 33342 (10 μg/ml) solution for 10 minutes at RT. After washing, images of cells staining with Nile Red and Hoechst 33342 were automatized captured using a fluorescence microscope controlled by MetaMorph Software (Universal Imaging) and coupled with a CCD camera. After images analysis, results were expressed as the sum of Nile red intensity per cells number.

Each structure is given as a SMILES string. “Also recorded” adds a separate entry of the source.

In the case of `CCCCCCCCCCCCCCCCCC(=O)O` [stearic acid], the “induction of lipid vesicles / foam cell formation (FIG. 9)” value is recorded as “Formation of foam cells; also recorded: induction of lipid vesicles”.
